Data published in PubChem BioAssay (NCI).
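Five concentrations, 48 hours, 96-well plates. GI50 = concentration required for 50% inhibition of growth. TGI marks complete inhibition of growth.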

What was measured:
Assay in all cases: NCI-60 cell line screen, 48 h
M14 melanoma = test system: M14 melanoma
UACC-257 melanoma = test system: UACC-257 melanoma
OVCAR-4 ovarian = test system: OVCAR-4 ovarian
SK-MEL-5 melanoma = test system: SK-MEL-5 melanoma
SF-268 CNS = test system: SF-268 CNS
LOX IMVI melanoma = test system: LOX IMVI melanoma
UO-31 renal = test system: UO-31 renal
IGROV1 ovarian = test system: IGROV1 ovarian
U251 CNS = test system: U251 CNS
ACHN renal = test system: ACHN renal
SR leukemia = test system: SR leukemia
CAKI-1 renal = test system: CAKI-1 renal
RXF 393 renal = test system: RXF 393 renal
HCC-2998 colon = test system: HCC-2998 colon
NCI/ADR-RES ovarian = test system: NCI/ADR-RES ovarian
SF-295 CNS = test system: SF-295 CNS
HL-60(TB) leukemia = test system: HL-60(TB) leukemia
HOP-92 NSCLC = test system: HOP-92 NSCLC
MALME-3M melanoma = test system: MALME-3M melanoma
HCT-15 colon = test system: HCT-15 colon
MDA-MB-435 = test system: MDA-MB-435
NCI-H23 lung = test system: NCI-H23 lung
DU-145 prostate = test system: DU-145 prostate
KM12 colon = test system: KM12 colon
786-0 renal = test system: 786-0 renal
SNB-75 CNS = test system: SNB-75 CNS
PC-3 prostate = test system: PC-3 prostate
TK-10 renal = test system: TK-10 renal
SN12C renal = test system: SN12C renal
RPMI-8226 leukemia = test system: RPMI-8226 leukemia
SF-539 CNS = test system: SF-539 CNS
COLO 205 colon = test system: COLO 205 colon
NCI-H522 lung = test system: NCI-H522 lung
SNB-19 CNS = test system: SNB-19 CNS
K-562 leukemia = test system: K-562 leukemia
HOP-62 NSCLC = test system: HOP-62 NSCLC
A498 renal = test system: A498 renal
OVCAR-3 ovarian = test system: OVCAR-3 ovarian
SK-MEL-2 melanoma = test system: SK-MEL-2 melanoma
UACC-62 melanoma = test system: UACC-62 melanoma
BT-549 breast = test system: BT-549 breast
SK-OV-3 ovarian = test system: SK-OV-3 ovarian
NCI-H226 lung = test system: NCI-H226 lung
HT29 colon = test system: HT29 colon
MCF7 breast = test system: MCF7 breast
NCI-H460 lung = test system: NCI-H460 lung
EKVX NSCLC = test system: EKVX NSCLC
MOLT-4 leukemia = test system: MOLT-4 leukemia
HCT-116 colon = test system: HCT-116 colon
HS 578T breast = test system: HS 578T breast
SK-MEL-28 melanoma = test system: SK-MEL-28 melanoma
OVCAR-5 ovarian = test system: OVCAR-5 ovarian
MDA-MB-231 breast = test system: MDA-MB-231 breast
CCRF-CEM leukemia = test system: CCRF-CEM leukemia
OVCAR-8 ovarian = test system: OVCAR-8 ovarian
SW-620 colon = test system: SW-620 colon
A549 NSCLC = test system: A549 NSCLC
T-47D breast = test system: T-47D breast

O=C(Nc1ccc(I)cc1F)c1cc(Cl)ccc1O
GI50 (M14 melanoma): 407 nM
TGI (M14 melanoma): 4720 nM
GI50 (UACC-257 melanoma): 467 nM
TGI (UACC-257 melanoma): 3990 nM
GI50 (OVCAR-4 ovarian): 356 nM
TGI (OVCAR-4 ovarian): 6400 nM
GI50 (SK-MEL-5 melanoma): 234 nM
TGI (SK-MEL-5 melanoma): 596 nM
GI50 (SF-268 CNS): 507 nM
TGI (SF-268 CNS): 7060 nM
GI50 (LOX IMVI melanoma): 424 nM
TGI (LOX IMVI melanoma): 2180 nM
GI50 (UO-31 renal): 235 nM
TGI (UO-31 renal): 1650 nM
GI50 (IGROV1 ovarian): 360 nM
TGI (IGROV1 ovarian): > 100000 nM
GI50 (U251 CNS): 590 nM
TGI (U251 CNS): > 100000 nM
GI50 (ACHN renal): 487 nM
TGI (ACHN renal): 10600 nM
GI50 (SR leukemia): 531 nM
TGI (SR leukemia): > 100000 nM
GI50 (CAKI-1 renal): 305 nM
TGI (CAKI-1 renal): 2340 nM
GI50 (RXF 393 renal): 507 nM
TGI (RXF 393 renal): 3070 nM
GI50 (HCC-2998 colon): 3140 nM
TGI (HCC-2998 colon): 10100 nM
GI50 (NCI/ADR-RES ovarian): 400 nM
TGI (NCI/ADR-RES ovarian): 3540 nM
GI50 (SF-295 CNS): 1750 nM
TGI (SF-295 CNS): 3490 nM
GI50 (HL-60(TB) leukemia): 441 nM
TGI (HL-60(TB) leukemia): 3270 nM
GI50 (HOP-92 NSCLC): 167 nM
TGI (HOP-92 NSCLC): 505 nM
GI50 (MALME-3M melanoma): 346 nM
TGI (MALME-3M melanoma): 1830 nM
GI50 (HCT-15 colon): 554 nM
TGI (HCT-15 colon): 10700 nM
GI50 (MDA-MB-435): 583 nM
TGI (MDA-MB-435): 4900 nM
GI50 (NCI-H23 lung): 386 nM
TGI (NCI-H23 lung): 3790 nM
GI50 (DU-145 prostate): 681 nM
TGI (DU-145 prostate): > 100000 nM
GI50 (KM12 colon): 2310 nM
TGI (KM12 colon): 6010 nM
GI50 (786-0 renal): 2190 nM
TGI (786-0 renal): 7180 nM
GI50 (SNB-75 CNS): 308 nM
TGI (SNB-75 CNS): 2360 nM
GI50 (PC-3 prostate): 1910 nM
TGI (PC-3 prostate): 6500 nM
GI50 (TK-10 renal): 1130 nM
TGI (TK-10 renal): 16300 nM
GI50 (SN12C renal): 365 nM
TGI (SN12C renal): 4470 nM
GI50 (RPMI-8226 leukemia): 280 nM
TGI (RPMI-8226 leukemia): 1280 nM
GI50 (SF-539 CNS): 409 nM
TGI (SF-539 CNS): 3890 nM
GI50 (COLO 205 colon): 3450 nM
TGI (COLO 205 colon): 11200 nM
GI50 (NCI-H522 lung): 324 nM
TGI (NCI-H522 lung): 4680 nM
GI50 (SNB-19 CNS): 372 nM
TGI (SNB-19 CNS): > 100000 nM
GI50 (K-562 leukemia): 429 nM
TGI (K-562 leukemia): > 100000 nM
GI50 (HOP-62 NSCLC): 2210 nM
TGI (HOP-62 NSCLC): 8000 nM
GI50 (A498 renal): 176 nM
TGI (A498 renal): 585 nM
GI50 (OVCAR-3 ovarian): 413 nM
TGI (OVCAR-3 ovarian): 10700 nM
GI50 (SK-MEL-2 melanoma): 358 nM
TGI (SK-MEL-2 melanoma): 1990 nM
GI50 (UACC-62 melanoma): 273 nM
TGI (UACC-62 melanoma): 1050 nM
GI50 (BT-549 breast): 372 nM
TGI (BT-549 breast): 1730 nM
GI50 (SK-OV-3 ovarian): 615 nM
TGI (SK-OV-3 ovarian): 2640 nM
GI50 (NCI-H226 lung): 1170 nM
TGI (NCI-H226 lung): 4890 nM
GI50 (HT29 colon): 3290 nM
TGI (HT29 colon): 27300 nM
GI50 (MCF7 breast): 552 nM
TGI (MCF7 breast): > 19800 nM
GI50 (NCI-H460 lung): 434 nM
TGI (NCI-H460 lung): > 26900 nM
GI50 (EKVX NSCLC): 1030 nM
TGI (EKVX NSCLC): 6810 nM
GI50 (MOLT-4 leukemia): 1440 nM
TGI (MOLT-4 leukemia): 5220 nM
GI50 (HCT-116 colon): 403 nM
TGI (HCT-116 colon): 1950 nM
GI50 (HS 578T breast): 325 nM
TGI (HS 578T breast): 3190 nM
GI50 (SK-MEL-28 melanoma): 353 nM
TGI (SK-MEL-28 melanoma): 1710 nM
GI50 (OVCAR-5 ovarian): 3550 nM
TGI (OVCAR-5 ovarian): > 100000 nM
GI50 (MDA-MB-231 breast): 388 nM
TGI (MDA-MB-231 breast): 4560 nM
GI50 (CCRF-CEM leukemia): 1730 nM
TGI (CCRF-CEM leukemia): 10000 nM
GI50 (OVCAR-8 ovarian): 623 nM
TGI (OVCAR-8 ovarian): 11000 nM
GI50 (SW-620 colon): 737 nM
TGI (SW-620 colon): 12700 nM
GI50 (A549 NSCLC): 2730 nM
TGI (A549 NSCLC): > 100000 nM
GI50 (T-47D breast): 294 nM
TGI (T-47D breast): 2570 nM
